Data published in patent publication US7427625B2, “Substituted thiatriazaacenaphthylene-6-carbonitrile kinase inhibitors” (Janssen Pharmaceutica, N.V., priority 2006, dated 2008).
pIC50: −log10 of the molar value.

Columns and labels:
HER-2 = target: T1, HER-2 (Homo sapiens, UniProt P04626); test: HER-2 Kinase Assay; format: biochemical
T1 construct: the nucleotides encoding amino acids 679 to 1255 of HER-2; purchased Proqinase (Freiburg, Germany)
Summary of the method: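 GST-HIS6-thrombin fusion of HER-2 residues 679–1255, assayed with biotinylated polyGluTyr, 1 μM ATP plus γ-33P-ATP, Mg2+, Mn2+ and vanadate in Hepes pH 7.5 for 1 h at 30 °C. Incorporation read by streptavidin Flashplate scintillation counting; IC50 values, or % inhibition at 1 μM.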

EGFR = target: T2, EGFR (Homo sapiens, UniProt P00533); test: EGFR Kinase Assay; format: biochemical; settings: for inhibition at 2 µM: test concentration of 2 μM, read-out: EGFR percent inhibition
T2 construct: The intracellular portion of EGFR started at nucleotide 2189 (corresponding to amino acid 667) and ended at the termination codon; made in house; host or cells: Sf9 insect cells (baculovirus)
T2 sequence (P00533 669-1210 limits assumed): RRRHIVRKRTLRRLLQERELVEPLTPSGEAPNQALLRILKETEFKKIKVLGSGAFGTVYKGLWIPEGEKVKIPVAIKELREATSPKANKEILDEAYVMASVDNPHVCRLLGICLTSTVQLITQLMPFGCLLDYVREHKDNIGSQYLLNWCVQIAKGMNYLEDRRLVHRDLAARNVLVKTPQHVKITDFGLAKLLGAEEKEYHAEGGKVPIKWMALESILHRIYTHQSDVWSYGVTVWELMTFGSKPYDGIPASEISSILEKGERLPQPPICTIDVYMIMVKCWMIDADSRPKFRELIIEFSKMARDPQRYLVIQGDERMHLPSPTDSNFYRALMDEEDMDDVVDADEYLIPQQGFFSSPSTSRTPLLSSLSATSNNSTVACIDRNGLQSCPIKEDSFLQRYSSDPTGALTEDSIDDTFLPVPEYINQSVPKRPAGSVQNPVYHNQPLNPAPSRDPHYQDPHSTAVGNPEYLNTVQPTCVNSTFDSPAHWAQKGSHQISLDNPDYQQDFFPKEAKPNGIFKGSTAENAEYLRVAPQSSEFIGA
Summary of the method: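 GST-fused EGFR intracellular domain (aa 667 to end), Sf9-expressed, phosphorylating biotinylated polyGluTyr with 5 μM ATP plus γ-33P ATP in Tris pH 8.0, MgCl2, vanadate, 1 mM DTT; 1 h, 30 °C, streptavidin Flashplate scintillation read. Triplicate 16-point half-log series from 200 uM; IC50 from % inhibition vs log concentration, else % inhibition at 2 μM.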

T1 sequence (P04626 679-1255): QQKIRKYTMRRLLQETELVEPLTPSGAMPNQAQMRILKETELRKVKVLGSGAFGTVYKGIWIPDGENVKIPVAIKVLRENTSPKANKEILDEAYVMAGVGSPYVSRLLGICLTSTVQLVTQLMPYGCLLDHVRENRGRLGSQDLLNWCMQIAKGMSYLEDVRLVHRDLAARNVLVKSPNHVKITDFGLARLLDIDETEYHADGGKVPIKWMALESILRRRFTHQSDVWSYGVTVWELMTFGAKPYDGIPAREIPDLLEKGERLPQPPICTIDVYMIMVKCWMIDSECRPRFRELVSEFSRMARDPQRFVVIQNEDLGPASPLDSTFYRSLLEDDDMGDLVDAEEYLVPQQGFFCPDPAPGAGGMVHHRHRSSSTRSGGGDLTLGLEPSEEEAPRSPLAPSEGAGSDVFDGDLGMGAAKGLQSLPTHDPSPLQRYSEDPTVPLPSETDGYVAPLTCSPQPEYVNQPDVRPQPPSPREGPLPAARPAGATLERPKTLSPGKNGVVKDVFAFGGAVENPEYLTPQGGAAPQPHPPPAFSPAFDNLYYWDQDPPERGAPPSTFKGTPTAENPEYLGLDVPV

Row | SMILES | pIC50 (HER-2) | pIC50 (EGFR) | inhibition at 2 µM (EGFR) [%] | inhibition at 1 µM (HER-2; test concentration of 1 μM, read-out: HER-2 percent inhibition) [%]
1 | CN(C)C1CCN(Cc2ccc(NC(=O)c3sc4ncc(C#N)c5c4c3NC(=O)N5c3c(Cl)ccc4c3OCO4)cc2)CC1 [Cpd 42, 5-(5-chloro-benzo[1,3]dioxol-4-yl)-6-cyano-4-oxo-4,5-dihydro-3H-1-thia-3,5,8-triaza-acenaphthylene-2-carboxylic acid [4-(4-dimethylamino-piperidin-1-ylmethyl)-phenyl]-amide] | < 6.00 | 6.07 |  | 
2 | N#Cc1cnc2sc(C(=O)Nc3ccc(CN4CCCCC4)cc3)c3c2c1N(c1ccc(Oc2ccccc2)cc1)C(=O)N3 [Cpd 49, 6-cyano-4-oxo-5-(4-phenoxy-phenyl)-4,5-dihydro-3H-1-thia-3,5,8-triaza-acenaphthylene-2-carboxylic acid (4-piperidin-1-ylmethyl-phenyl)-amide] | 6.08 | 6.65 |  | 
3 | CCOC(=O)c1sc2nc(-c3cc(F)ccc3Cl)c(C#N)c3c2c1NC(=O)N3c1ccncc1 [Cpd 15, 7-(2-chloro-5-fluoro-phenyl)-6-cyano-4-oxo-5-pyridin-4-yl-4,5-dihydro-3H-1-thia-3,5,8-triaza-acenaphthylene-2-carboxylic acid ethyl ester] | < 4.00 |  | 6 | 
4 | CC1CCN(Cc2ccc(NC(=O)c3sc4ncc(C#N)c5c4c3NC(=O)N5c3c(Cl)ccc4c3OCO4)cc2)CC1 [Cpd 19, 5-(5-chloro-benzo[1,3]dioxol-4-yl)-6-cyano-4-oxo-4,5-dihydro-3H-1-thia-3,5,8-triaza-acenaphthylene-2-carboxylic acid [4-(4-methyl-piperidin-1-ylmethyl)-phenyl]-amide] |  | 6.20 |  | 49
5 | CC(C)(C)OC(=O)NC1CCN(Cc2ccc(NC(=O)c3sc4ncc(C#N)c5c4c3NC(=O)N5c3c(Cl)ccc4c3OCO4)cc2)CC1 [Cpd 46, [1-(4-{[5-(5-chloro-benzo[1,3]dioxol-4-yl)-6-cyano-4-oxo-4,5-dihydro-3H-1-thia-3,5,8-triaza-acenaphthylene-2-carbonyl]-amino}-benzyl)-piperidin-4-yl]-carbamic acid tert-butyl ester] | 6.87 | 6.82 |  | 
6 | CCOC(=O)c1sc2nc(O)c(C#N)c3c2c1NC(=O)N3c1ccncc1 [Cpd 14, 6-cyano-7-hydroxy-4-oxo-5-pyridin-4-yl-4,5-dihydro-3H-1-thia-3,5,8-triaza-acenaphthylene-2-carboxylic acid ethyl ester] | < 4.00 |  | -9 | 
7 | CN(C)C1CCN(C(=O)c2sc3ncc(C#N)c4c3c2NC(=O)N4c2c(Cl)ccc3c2OCO3)CC1 [Cpd 41, 5-(5-chloro-benzo[1,3]dioxol-4-yl)-2-(4-dimethylamino-piperidine-1-carbonyl)-4-oxo-4,5-dihydro-3H-1-thia-3,5,8-triaza-acenaphthylene-6-carbonitrile] | 4.87 |  | 7 | 
8 | N#Cc1cnc2sc(C(=O)Nc3ccc(CCN4CCCCC4)cc3)c3c2c1N(c1ccc(Oc2ccccc2)cc1)C(=O)N3 [Cpd 48, 6-cyano-4-oxo-5-(4-phenoxy-phenyl)-4,5-dihydro-3H-1-thia-3,5,8-triaza-acenaphthylene-2-carboxylic acid [4-(2-piperidin-1-yl-ethyl)-phenyl]-amide] | < 5.00 |  | 39 | 
9 | COc1cc(NC(=O)c2sc3ncc(C#N)c4c3c2NC(=O)N4c2ccc(Oc3ccccc3)cc2)ccc1CN1CCOCC1 [Cpd 45, 6-cyano-4-oxo-5-(4-phenoxy-phenyl)-4,5-dihydro-3H-1-thia-3,5,8-triaza-acenaphthylene-2-carboxylic acid (3-methoxy-4-morpholin-4-ylmethyl-phenyl)-amide] | 7.08 | 7.03 |  | 
